These results are taken from patent US20230099293A1, “OGA INHIBITOR COMPOUNDS” (priority 2019, published 2023).

One data set has as its target T1, hOGA (Homo sapiens, UniProt O60502).
T1 construct: endogenous in cells; host or cells: HEK293 cells inducible for P301L mutant human Tau (isoform 2N4R)
T1 sequence (O60502 1-916): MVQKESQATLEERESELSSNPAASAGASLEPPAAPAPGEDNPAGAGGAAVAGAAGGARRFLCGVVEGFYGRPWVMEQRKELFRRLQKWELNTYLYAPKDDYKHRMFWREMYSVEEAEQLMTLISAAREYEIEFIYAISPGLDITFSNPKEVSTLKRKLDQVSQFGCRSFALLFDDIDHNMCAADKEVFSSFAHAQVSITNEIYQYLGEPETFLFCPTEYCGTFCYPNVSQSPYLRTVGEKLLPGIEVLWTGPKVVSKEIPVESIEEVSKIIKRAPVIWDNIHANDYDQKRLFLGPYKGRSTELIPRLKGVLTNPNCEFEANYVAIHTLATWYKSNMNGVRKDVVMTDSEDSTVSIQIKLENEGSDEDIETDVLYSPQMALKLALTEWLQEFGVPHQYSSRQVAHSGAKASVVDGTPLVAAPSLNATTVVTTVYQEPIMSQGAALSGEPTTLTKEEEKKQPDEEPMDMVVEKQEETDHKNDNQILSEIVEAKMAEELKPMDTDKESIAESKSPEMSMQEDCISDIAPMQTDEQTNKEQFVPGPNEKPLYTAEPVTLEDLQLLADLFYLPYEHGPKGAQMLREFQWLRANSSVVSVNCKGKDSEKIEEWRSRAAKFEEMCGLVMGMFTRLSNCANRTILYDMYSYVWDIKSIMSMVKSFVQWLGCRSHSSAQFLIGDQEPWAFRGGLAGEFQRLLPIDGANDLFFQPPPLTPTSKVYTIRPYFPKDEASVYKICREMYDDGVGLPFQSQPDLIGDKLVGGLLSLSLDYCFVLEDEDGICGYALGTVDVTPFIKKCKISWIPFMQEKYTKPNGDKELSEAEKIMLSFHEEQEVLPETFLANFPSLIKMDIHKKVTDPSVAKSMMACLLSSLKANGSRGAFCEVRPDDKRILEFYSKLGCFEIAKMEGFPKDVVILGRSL
The experiment in a line: OGA cellular assay (ICC detection of O-GlcNAcylated proteins in HEK293 cells inducible for P301L mutant human Tau). It is filed as cell-based. The arrangement: Emax: dose or concentration left out as unconfirmed. Conditions: for EC50: Cellular hOGA, pEC50, Table 5; for Emax: HEK293, read-out: Cellular Emax (%). An outline of the steps:
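HEK293 cells inducible for P301L Tau (2N4R), seeded in low-glucose medium, treated with compound for 6 h at 0.2% DMSO. After PFA fixation, O-GlcNAcylated proteins stained with CTD110.6 and imaged (488 nm intensity, 9 fields/well); Hoechst nuclei count for toxicity. IC50 by non-linear regression, Thiamet-G 200 μM as maximum.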

In data set [1] the target is T2, recombinant human Meningioma Expressed Antigen 5 (MGEA5), also referred to as O-GlcNAcase (OGA) (Homo sapiens, UniProt O60502).
T2 construct: Full length OGA enzyme was purchased at OriGene (cat #TP322411); purchased OriGene TP322411
T2 sequence (O60502 1-916): T1 sequence (O60502 1-916)
As to the kind of experiment: OGA biochemical assay (inhibition of FM-GlcNAc hydrolysis, fluorescence). Conditions: for IC50: Enzymatic hOGA, pIC50, Table 5; for IC50 / Enzymatic hOGA; pIC50: full length OGA 2 nM, FM-GlcNAc 100 uM, 6 h at room temperature; for Emax: read-out: Enzymatic Emax (%); for Enzymatic hOGA; pIC50: Table 5. A digest of the protocol: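 Full-length recombinant OGA at 2 nM with 100 uM FM-GlcNAc in 200 mM citrate/phosphate buffer, 0.005% Tween-20. IC50 and Hill coefficient from curve fit between no-inhibitor and saturating standard-inhibitor controls.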

Where [2] appears, read: HEK293 P301L Tau cells, 6 hours incubation, O-GlcNAcylation readout.
Setting [3] is: Table 5, HEK293 P301L Tau cells, 6 hours incubation, O-GlcNAcylation readout.
Where [4] appears, read: second table, averaged values over several runs, obtained after recalibration of the equipment.

On to `CNC(=O)Cn1cnc2c(Nc3c(C)cc(C(F)(F)F)cc3C)nccc21` [Compound 4, 2-(4-((2,6-Dimethyl-4-(trifluoromethyl)phenyl)amino)-1H-imidazo[4,5-c]pyridin-1-yl)-N-methylacetamide], for which the melting point – broadly, the temperature of the solid-liquid transition – was 275.1 °C. In addition, the EC50 (in general, the concentration that produces a half-maximal response) at hOGA (setting [2]) is 55 nM. Besides, the maximal effect (Emax) (as a rule, the maximal effect, on the per cent scale that the assay sets) at hOGA worked out at 101%. In data set [1], the IC50 (in general, the concentration at which inhibition is half-maximal) was 3.39 nM and the Emax stood at 98%.
With `Cc1cc(C(F)(F)F)cc(C)c1Nc1nccc2c1ncn2C(C)C(=O)N(C)C` (stereo not shown) [Compound 72], the melting point came out at 199.9 °C. Also, the Emax at hOGA is 2%. Besides, the “Cellular hOGA; pEC50” value on hOGA (setting [3]) was under 6. In addition, the “Cellular hOGA; pEC50” value at hOGA (setting [4]) is on record as under 6. Moreover, in data set [1], the “Enzymatic hOGA; pIC50” value is recorded as 6.26 and the Emax is 92%.
`Cc1c(C(F)(F)F)nn(C)c1Nc1nccc2c1ncn2CC(=O)N(C)C` [Compound 39] had a melting point of 240 °C. Moreover, the EC50 at hOGA (setting [2]) is over 1000 nM. Further, the Emax on hOGA is 12%. Further, in data set [1], the IC50 is 631 nM and the Emax turned out to be 94%.
For `Cc1cc(C(F)(F)F)cc(C)c1Nc1nccc2c1ncn2CC(=O)N1CCC1` [Compound 50] the same measures were 176.4 °C, 933 nM, 48%, 126 nM and 94%.
`Cc1cc(C(F)(F)F)cc(C)c1Nc1nccc2c1ncn2CC(=O)N(C)CC(F)(F)F` [Compound 77] came in with a melting point of 228.3 °C. Moreover, the Emax at hOGA came out at 67%. Further, at hOGA (setting [3]), the “Cellular hOGA; pEC50” value came to 6.37. In data set [1], the “Enzymatic hOGA; pIC50” value is on record as 7.23 and the Emax came out at 103%.
In the case of `Cc1cc(C(F)(F)F)cc(C)c1Nc1nccc2c1ncn2CCC(=O)N(C)C` [Compound 70], the melting point turned out to be 194.9 °C. Moreover, on hOGA, the Emax is 7%. For the same compound, the “Cellular hOGA; pEC50” value on hOGA (setting [3]) is given as under 6. Further, the “Cellular hOGA; pEC50” value on hOGA (setting [4]) was under 6. Moreover, in data set [1], the “Enzymatic hOGA; pIC50” value is under 5 and the Emax came to 7%.
With `Cc1cc(Cn2cnc3c(Nc4c(C)cc(C(F)(F)F)cc4C)nccc32)no1` [Compound 80], the melting point is 164.7 °C. Besides, on hOGA, the Emax is 94%. In data set [1], the IC50 was 8.91 nM and the Emax came out at 104%.
With `Cc1cc(C(F)(F)F)cc(C)c1Nc1ncc(C)c2c1ncn2CC(=O)N(C)C` [Compound 6, 2-(4-((2,6-Dimethyl-4-(trifluoromethyl)phenyl)amino)-7-methyl-1H-imidazo[4,5-c]pyridin-1-yl)-N,N-dimethylacetamide], the melting point is 238.3 °C. The compound also gave an EC50 at hOGA (setting [2]) of 288 nM. Also, the Emax at hOGA was 60%. In data set [1], the IC50 is 19.1 nM and the Emax was determined as 99%.
For `Cc1cc(C(F)(F)F)cc(Cl)c1Nc1nccc2c1ncn2CC(=O)N(C)C` [Compound 15] the same measures were 214.14 °C, 204 nM, 64%, 14.1 nM and 98%.
On the same counts, the results for `Cc1cc(C(F)(F)F)cc(C)c1Nc1nccc2c1ncn2CC(=O)N(C)C1CC1` [Compound 52] are 199.8 °C, 138 nM, 73%, 8.13 nM and 102%.
For `Cc1cc(C(F)(F)F)cc(C)c1Nc1nccc2c1ncn2-c1ncc(F)cn1` [Compound 69], the melting point worked out at 198.2 °C. The Emax at hOGA is 6%. Moreover, at hOGA (setting [3]), the “Cellular hOGA; pEC50” value was under 6. Moreover, at hOGA (setting [4]), the “Cellular hOGA; pEC50” value was 6.14. Moreover, in data set [1], the “Enzymatic hOGA; pIC50” value amounted to 6.14 and the Emax is 80%.
For `Cc1nn(-c2cccc(F)c2)c(C)c1Nc1nccc2c1ncn2CC(=O)N(C)C` [Compound 34], the melting point amounted to 181.5 °C. Also, the EC50 at hOGA (setting [2]) was 562 nM. For the same compound, the Emax at hOGA came out at 54%. Also, in data set [1], the IC50 was 36.3 nM and the Emax turned out to be 99%.
For `Cc1cc(OC(F)(F)F)cc(Cl)c1Nc1nccc2c1ncn2CC(=O)N(C)C` [Compound 16] the same measures were 182.81 °C, 316 nM, 66%, 13.5 nM and 101%.
On to `Cc1cc(C(F)(F)F)cc(C)c1Nc1ncc(F)c2c1ncn2CC(=O)N(C)C` [Compound 35], for which the melting point came to 236.7 °C. At hOGA (setting [2]), this compound gave an EC50 of over 1000 nM. The maximal response (Emax) at hOGA worked out at 25%. In addition, in data set [1], the IC50 is 178 nM and the Emax came to 96%.
For `Cc1cc(C)cc(-n2nc(C)c(Nc3nccc4c3ncn4CC(=O)N(C)C)c2C)c1` [Compound 43] the same measures were 154.7 °C, 437 nM, 65%, 14.8 nM and 99%.
For `Cc1c(-c2cccc(F)c2)nn(C)c1Nc1nccc2c1ncn2CC(=O)N(C)C` [Compound 40] the same measures were 230 °C, over 1000 nM, 27%, 105 nM and 102%.
On the same counts, the results for `Cc1nn(-c2ccc(F)cn2)c(C)c1Nc1nccc2c1ncn2CC(=O)N(C)C` [Compound 32] are 256.6 °C, over 1000 nM, 34%, 174 nM and 100%.
In turn, `Cc1n[nH]c(C)c1Nc1nccc2c1ncn2CC(=O)N(C)C` [Compound 38] came in with a melting point of 283.5 °C. Further, the EC50 on hOGA (setting [2]) was over 1000 nM. In addition, on hOGA, the Emax was 6%. In data set [1], the IC50 is 912 nM and the Emax is 90%.
On the same counts, the results for `Cc1cc(C)c(Nc2nccc3c2ncn3CC(=O)N(C)C)c(C)c1` [Compound 19] are 270.2 °C, 537 nM, 62%, 20 nM and 98%.
On the same counts, the results for `Cc1cc(C(F)(F)F)cc(C)c1Nc1ncc(Cl)c2c1ncn2CC(=O)N(C)C` [Compound 62, 2-[7-Chloro-4-[2,6-dimethyl-4-(trifluoromethyl)anilino]imidazo[4,5-c]pyridin-1-yl]-N,N-dimethyl-acetamide] are 239.9 °C, over 1000 nM, 13%, 692 nM and 91%.
For `CC(C)c1cc(C(F)(F)F)cc(F)c1Nc1nccc2c1ncn2CC(=O)N(C)C` [Compound 31] the same measures were 191.4 °C, over 1000 nM, 36%, 87.1 nM and 104%.
For `Cc1ccnc(C(C)C)c1Nc1nccc2c1ncn2CC(=O)N(C)C` [Compound 14], the melting point was 223.3 °C. The same compound gave an EC50 at hOGA (setting [2]) of 427 nM. Also, the Emax at hOGA worked out at 75%. Also, in data set [1], the IC50 is 14.1 nM and the Emax was found to be 100%.
